Laboratory results published in patent publication US6518303B2, “2-phenylpyran-4-one derivatives” (Almirall Prodesfarma S.A., priority 1999, dated 2003).

Key:
COX-1 = molecular target: T1, COX-1 (Homo sapiens, UniProt P23219); assay: COX-1 activity in human whole blood (TXB2, calcium ionophore A23187); assay type: cell-based; conditions: 1 h at 37° C., TXB2 ELISA
T1 construct: Fresh blood from healthy volunteers; endogenous in cells; host or cells: fresh heparinized human whole blood stimulated with calcium ionophore A23187
Description: For the COX-1 activity determination, 500 μl aliquots of blood were incubated with either 5 μl vehicle (dimethylsulphoxide) or 5 μl of a test compound for 1 h at 37° C. […] Plasma was separated by centrifugation (10 min at 13000 rpm) and kept at −30° C. until TXB2 levels were measured using an enzyme immunoassay kit (ELISA). The effect of the compounds were evaluated by incubating each compound at five to six different concentrations with triplicate determinations. IC50 values were obtained by non-linear regression using InPlot, GraphPad software on an IBM computer.

COX-2 = molecular target: T2, COX-2 (Homo sapiens, UniProt P35354); assay: COX-2 activity in human whole blood (PGE2, LPS-induced); assay type: cell-based; conditions: for IC50: human whole blood, LPS 10 μg/ml 24 h at 37° C., PGE2 ELISA; for Ratio COX-1/COX-2: ratio of whole blood IC50 values
T2 construct: incubated in the presence of LPS (10 μg/ml) for 24 h at 37° C. in order to induce The COX-2 expression; endogenous in cells; host or cells: fresh heparinized human whole blood, COX-2 induced with LPS for 24 h
T2 sequence (P35354 18-604): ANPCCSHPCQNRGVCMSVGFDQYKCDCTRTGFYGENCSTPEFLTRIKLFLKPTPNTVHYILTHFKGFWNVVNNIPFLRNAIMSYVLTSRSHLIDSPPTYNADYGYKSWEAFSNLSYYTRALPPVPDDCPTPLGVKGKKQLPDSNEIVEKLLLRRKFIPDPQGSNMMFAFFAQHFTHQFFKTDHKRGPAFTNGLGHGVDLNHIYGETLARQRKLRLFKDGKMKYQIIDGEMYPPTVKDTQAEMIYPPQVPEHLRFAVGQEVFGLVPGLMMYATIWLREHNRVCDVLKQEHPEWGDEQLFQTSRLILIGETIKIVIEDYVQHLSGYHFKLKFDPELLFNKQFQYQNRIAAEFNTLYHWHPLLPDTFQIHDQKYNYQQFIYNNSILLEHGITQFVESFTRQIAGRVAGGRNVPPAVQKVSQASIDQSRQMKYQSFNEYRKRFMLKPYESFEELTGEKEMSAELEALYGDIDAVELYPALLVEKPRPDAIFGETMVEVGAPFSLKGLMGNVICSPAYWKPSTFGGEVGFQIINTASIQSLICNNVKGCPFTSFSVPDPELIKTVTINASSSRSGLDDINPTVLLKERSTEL
Description: Plasma was separated by centrifugation (10 min at 13000 rpm.) and kept at −30° C. until PGE2 levels were measured using an enzyme immunoassay kit (ELISA). The effects of inhibitors were studied by incubating each compound (5 μl aliquots) at five to six different concentrations with triplicate determinations in the presence of LPS for 24 hours. IC50 values were obtained by non-linear regression using InPlot, GraphPad software on an IBM computer.

T1 sequence (P23219 24-599): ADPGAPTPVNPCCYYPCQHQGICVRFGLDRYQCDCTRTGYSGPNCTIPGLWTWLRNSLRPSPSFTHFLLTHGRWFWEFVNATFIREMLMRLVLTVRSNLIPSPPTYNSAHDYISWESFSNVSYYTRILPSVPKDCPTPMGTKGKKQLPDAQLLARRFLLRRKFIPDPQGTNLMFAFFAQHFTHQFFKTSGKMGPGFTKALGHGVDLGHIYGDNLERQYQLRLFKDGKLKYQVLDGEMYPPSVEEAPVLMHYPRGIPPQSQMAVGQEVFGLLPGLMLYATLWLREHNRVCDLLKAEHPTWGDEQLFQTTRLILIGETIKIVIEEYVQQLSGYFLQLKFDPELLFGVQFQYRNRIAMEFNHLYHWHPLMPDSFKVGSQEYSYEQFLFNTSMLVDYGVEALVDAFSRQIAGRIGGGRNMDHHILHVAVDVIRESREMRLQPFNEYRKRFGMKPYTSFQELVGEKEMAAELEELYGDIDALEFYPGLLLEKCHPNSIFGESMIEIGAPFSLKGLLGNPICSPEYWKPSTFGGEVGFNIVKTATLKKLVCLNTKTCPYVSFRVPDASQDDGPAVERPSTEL

| Compound | melting point | IC50 (COX-1) | IC50 (COX-2) | Ratio COX-1/COX-2 (COX-2) |
| --- | --- | --- | --- | --- |
| COCc1cc(=O)c(-c2ccc(Cl)cc2)c(-c2ccc(S(C)(=O)=O)cc2)o1 (hydrate or solvate) [Compound 63, 3-(4-chlorophenyl)-2-(4-methanesulfonylphenyl)-6-methoxymethylpyran-4-one] | 162 °C | – | – | – |
| Cc1cc(=O)c(-c2cccc(F)c2)c(-c2ccc(S(C)(=O)=O)cc2)o1 [Compound 3, 3-(3-fluorophenyl)-2-(4-methanesulfonylphenyl)-6-methylpyran-4-one] | 182 °C | – | – | – |
| Cc1cc(=O)c(-c2ccc(Br)cc2)c(-c2ccc(S(C)(=O)=O)cc2)o1 [Compound 8, 3-(4-bromophenyl)-2-(4-methanesulfonylphenyl)-6-methylpyran-4-one] | 198 °C | > 100000 nM | 1700 nM | >58 |
| Cc1ccc(-c2c(-c3ccc(S(C)(=O)=O)cc3)oc(C)cc2=O)cc1 [Compound 10, 2-(4-methanesulfonylphenyl)-6-methyl-3-p-tolylpyran-4-one] | 205 °C | – | – | – |
| Cc1cccc(-c2c(-c3ccc(S(C)(=O)=O)cc3)oc(C)cc2=O)c1 [Compound 11, 2-(4-methanesulfonylphenyl)-6-methyl-3-m-tolylpyran-4-one] | 126 °C | – | – | – |
| Cc1cc(=O)c(-c2ccccc2C)c(-c2ccc(S(C)(=O)=O)cc2)o1 [Compound 12, 2-(4-methanesulfonylphenyl)-6-methyl-3-o-tolylpyran-4-one] | 91 to 93 °C | – | – | – |
| Cc1cc(=O)c(-c2ccc(C(F)(F)F)cc2)c(-c2ccc(S(C)(=O)=O)cc2)o1 [Compound 13, 2-(4-methanesulfonylphenyl)-6-methyl-3-(4-trifluoromethylphenyl)pyran-4-one] | 172 °C | – | – | – |
| Cc1cc(=O)c(-c2ccc(F)c(F)c2)c(-c2ccc(S(C)(=O)=O)cc2)o1 [Compound 16, 3-(3,4-difluorophenyl)-2-(4-methanesulfonylphenyl)-6-methylpyran-4-one] | 207 °C | – | – | – |
| Cc1cc(=O)c(-c2cc(F)ccc2F)c(-c2ccc(S(C)(=O)=O)cc2)o1 [Compound 18, 3-(2,5-difluorophenyl)-2-(4-methanesulfonylphenyl)-6-methylpyran-4-one] | 183 °C | – | – | – |
| Cc1cc(=O)c(-c2c(F)cccc2F)c(-c2ccc(S(C)(=O)=O)cc2)o1 [Compound 19, 3-(2,6-difluorophenyl)-2-(4-methanesulfonylphenyl)-6-methylpyran-4-one] | 206 °C | – | – | – |
| Cc1cc(=O)c(-c2ccc(Cl)cc2Cl)c(-c2ccc(S(C)(=O)=O)cc2)o1 [Compound 21, 3-(2,4-dichlorophenyl)-2-(4-methanesulfonylphenyl)-6-methylpyran-4-one] | 203 °C | – | – | – |
| Cc1cc(=O)c(-c2ccc(F)cc2Cl)c(-c2ccc(S(C)(=O)=O)cc2)o1 [Compound 27, 3-(2-chloro-4-fluorophenyl)-2-(4-methanesulfonylphenyl)-6-methylpyran-4-one] | 113 °C | – | – | – |
| Cc1cc(=O)c(C2CCCCC2)c(-c2ccc(S(C)(=O)=O)cc2)o1 [Compound 33, 3-cyclohexyl-2-(4-methanesulfonylphenyl)-6-methylpyran-4-one] | 98 to 99 °C | – | – | – |
| Cc1cc(=O)c(Oc2ccccc2F)c(-c2ccc(S(C)(=O)=O)cc2)o1 [Compound 40, 3-(2-fluorophenoxy)-2-(methanesulfonylphenyl)-6-methylpyran-4-one] | – | 27000 nM | 140 nM | 193 |
| Cc1cc(=O)c(-c2ccc(F)cc2)c(-c2ccc(S(N)(=O)=O)cc2)o1 [Compound 55, 4-[3 (4-fluorophenyl)-6-methyl-4-oxo-4H-pyran-2-yl]benzenesulfonamide] | 247 °C | – | – | – |
| Cc1cc(=O)c(-c2ccc(Cl)c(Cl)c2)c(-c2ccc(S(N)(=O)=O)cc2)o1 [Compound 56, 4-[3-(3,4-dichlorophenyl)-6-methyl-4-oxo-4H-pyran-2-yl]benzenesulfonamide] | 128 °C | – | – | – |
| CS(=O)(=O)c1ccc(-c2oc(CO)cc(=O)c2-c2ccc(Cl)cc2)cc1 [Compound 60, 3-(4-chlorophenyl)-6-hydroxymethyl-2-(4-methanesulfonylphenyl)pyran-4-one] | 120 °C | – | – | – |
| COCc1cc(=O)c(-c2ccc(Cl)cc2)c(-c2ccc(S(C)(=O)=O)cc2)o1 [Compound 63, 3-(4-chlorophenyl)-2-(4-methanesulfonylphenyl)-6-methoxymethylpyran-4-one] | – | 44000 nM | 1730 nM | 25 |
| CS(=O)(=O)c1ccc(-c2oc(C(=O)O)cc(=O)c2-c2ccc(Cl)cc2)cc1 [Compound 65, 5-(4-chlorophenyl)-6-(4-methanesulfonylphenyl)-4-oxo-4H-pyran-2-carboxylic acid] | 236 °C | – | – | – |

Other lines, results leading:

| melting point | IC50 (COX-1) | IC50 (COX-2) | Ratio COX-1/COX-2 (COX-2) | Compound |
| --- | --- | --- | --- | --- |
| 185 °C | – | – | – | Cc1cc(=O)c(-c2ccccc2)c(-c2ccc(S(C)(=O)=O)cc2)o1 [Compound 1, 2-(4-methanesulfonylphenyl) -6-methyl-3-phenylpyran-4-one] |
| 237 °C | > 100000 nM | 1060 nM | >94 | Cc1cc(=O)c(-c2ccc(F)cc2)c(-c2ccc(S(C)(=O)=O)cc2)o1 [Compound 2, 3-(4-fluorophenyl)-2-(4-methanesulfonylphenyl)-6-methylpyran-4-one] |
| 136 to 137 °C | > 100000 nM | 1500 nM | >66 | Cc1cc(=O)c(-c2ccccc2F)c(-c2ccc(S(C)(=O)=O)cc2)o1 [Compound 4, 3-(2-fluorophenyl)-2-(4-methanesulfonylphenyl)-6-methylpyran-4-one] |
| 131 °C | – | – | – | Cc1cc(=O)c(-c2cccc(Cl)c2)c(-c2ccc(S(C)(=O)=O)cc2)o1 [Compound 6, 3-(3-chlorophenyl)-2-(4-methanesulfonylphenyl)-6-methylpyran-4-one] |
| 148 °C | – | – | – | Cc1cc(=O)c(-c2ccccc2Cl)c(-c2ccc(S(C)(=O)=O)cc2)o1 [Compound 7, 3-(2-chlorophenyl)-2-(4-methanesulfonylphenyl)-6-methylpyran-4-one] |
| 208 °C | – | 1100 nM | 90 | Cc1cc(=O)c(-c2ccc(F)cc2F)c(-c2ccc(S(C)(=O)=O)cc2)o1 [Compound 15, 3-(2,4-difluorophenyl)-2-(4-methanesulfonylphenyl)-6-methylpyran-4-one] |
| 210 °C | – | – | – | Cc1cc(=O)c(-c2cc(F)cc(F)c2)c(-c2ccc(S(C)(=O)=O)cc2)o1 [Compound 17, 3-(3,5-difluorophenyl)-2-(4-methanesulfonylphenyl)-6-methylpyran-4-one] |
| 176 °C | – | – | – | Cc1cc(=O)c(-c2ccc(C)c(Cl)c2)c(-c2ccc(S(C)(=O)=O)cc2)o1 [Compound 29, 3-(3-chloro-4-methylphenyl)-2-(4-methanesulfonylphenyl)-6-methylpyran-4-one] |
| 169 °C | – | – | – | Cc1cc(=O)c(Oc2ccccc2)c(-c2ccc(S(C)(=O)=O)cc2)o1 [Compound 38, 2-(4-methanesulfonylphenyl)-6-methyl-3-phenoxypyran-4-one] |
| – | 41000 nM | 200 nM | 205 | Cc1cc(=O)c(Oc2ccccc2Cl)c(-c2ccc(S(C)(=O)=O)cc2)o1 [Compound 42, 3-(2-chlorophenoxy)-2-(methanesulfonylphenyl)-6-methylpyran-4-one] |
| 183 °C | 39000 nM | – | – | Cc1ccc(Oc2c(-c3ccc(S(C)(=O)=O)cc3)oc(C)cc2=O)cc1 [Compound 44, 2-(4-methanesulfonylphenyl)-6-methyl-3-(4-methylphenoxy) pyran-4-one] |
| 218 °C | – | – | – | Cc1cc(=O)c(-c2ccccc2)c(-c2ccc(S(N)(=O)=O)cc2)o1 [Compound 54, 4-(6-methyl-4-oxo-3-phenyl-4H-pyran-2-yl)benzenesulfonamide] |
| 221 °C | – | – | – | Cc1cc(=O)c(Oc2ccc(Cl)cc2)c(-c2ccc(S(N)(=O)=O)cc2)o1 [Compound 57, 4-[3-(4-chlorophenoxy)-6-methyl-4-oxo-4H-pyran-2-yl]benzenesulfonamide] |
| 113 °C | – | – | – | CS(=O)(=O)c1ccc(-c2oc(C#N)cc(=O)c2-c2ccc(F)cc2F)cc1 [Compound 59, 5-(2,4-difluorophenyl)-6-(4-methanesulfonylphenyl)-4-oxo-4H-pyran-2-carbonitrile] |
